From patent US8563714B2, “Bridged spiro [2.4] heptane derivatives as ALX receptor and/or FPRL2 agonists” (Actelion Pharmaceuticals Ltd., priority 2009, dated 2013)
pEC50: −log10 of the molar value.

What was measured:
human ALX receptor = target: T1, human ALX receptor (Homo sapiens, UniProt P25090); experiment: Intracellular calcium measurements (FLIPR), agonistic activity in HEK293-hALXR-Gα16 cells; assay type: cell-based; conditions: Fluo-4 calcium FLIPR, normalized to WKYMVm 10 nM
T1 construct: expressed in transfected cells; host or cells: HEK293 (HEK293-hALXR-Gα16)
T1 sequence (P25090 1-351): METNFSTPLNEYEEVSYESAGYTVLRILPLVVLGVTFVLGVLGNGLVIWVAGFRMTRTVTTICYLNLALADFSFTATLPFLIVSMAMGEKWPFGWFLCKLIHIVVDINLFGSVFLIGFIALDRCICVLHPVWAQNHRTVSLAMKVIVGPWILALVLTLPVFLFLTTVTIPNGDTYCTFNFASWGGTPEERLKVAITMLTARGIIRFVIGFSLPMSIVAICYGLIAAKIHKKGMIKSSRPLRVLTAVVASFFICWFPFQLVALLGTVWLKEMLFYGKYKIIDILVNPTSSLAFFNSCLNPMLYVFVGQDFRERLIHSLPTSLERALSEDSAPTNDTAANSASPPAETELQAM
Summary of the method: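 Agonist-induced calcium flux was recorded by FLIPR (488/540 nm) in HEK293-hALXR-Gα16 cells pre-loaded with Fluo-4 AM (1 μM, 60 min, 37°C). Peak signal above baseline, after subtracting buffer addition, was expressed relative to WKYMVm at 10 nM final.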

human FPRL2 = target: T2, human FPRL2 (Homo sapiens, UniProt P25089); experiment: Intracellular calcium measurements (FLIPR), agonistic activity in HEK293-hFPRL2-Gα16 cells; assay type: cell-based; conditions: Fluo-4 calcium FLIPR, normalized to GLY14-Humanin 100 nM
T2 construct: expressed in transfected cells; host or cells: HEK293 (HEK293-hFPRL2-Gα16)
T2 sequence (P25089 1-353): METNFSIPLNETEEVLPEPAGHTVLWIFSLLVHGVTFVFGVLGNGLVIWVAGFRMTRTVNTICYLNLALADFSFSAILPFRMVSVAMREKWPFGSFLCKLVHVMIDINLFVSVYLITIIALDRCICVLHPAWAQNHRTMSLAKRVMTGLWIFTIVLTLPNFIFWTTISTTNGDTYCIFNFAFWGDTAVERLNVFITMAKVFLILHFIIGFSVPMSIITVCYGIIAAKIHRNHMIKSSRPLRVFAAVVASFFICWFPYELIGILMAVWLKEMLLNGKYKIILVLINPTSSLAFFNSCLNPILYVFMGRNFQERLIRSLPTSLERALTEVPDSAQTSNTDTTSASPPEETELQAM
Summary of the method: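 Peak values after baseline subtraction are expressed relative to 100 nM Gly14-Humanin; compounds diluted in assay buffer from 10 mM DMSO stocks.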

Row | pEC50 (human ALX receptor) | pEC50 (human FPRL2) | Compound
1 | 8.54 | 6.73 | O=C(NCCCCN1CCCC1)[C@H]1[C@H](C(=O)Nc2ccc(Br)cn2)[C@@H]2C=C[C@H]1C21CC1 [Example 294, (5R)—N^5-(5-Bromo-pyridin-2-yl)-(6R)—N^6-(4-pyrrolidino-butyl)-(4S,7R)-[4,7-ethenylene-spiro[2.4]heptane]-5,6-dicarboxamide]
2 | 6.88 | 5.26 | CCCCCCN(C)C(=O)[C@H]1[C@H](C(=O)Nc2ccc(Br)cc2)[C@@H]2C=C[C@H]1C21CC1 (racemic) [Example 84, (5R*)—N^5-(4-Bromophenyl)-(6R*)—N^6-methyl-N^6-hexyl-(4S*,7R*)-[4,7-ethenylene-spiro[2.4]heptane]-5,6-dicarboxamide]
3 | 5.11 | 6.02 | Cc1nonc1CNC(=O)[C@H]1[C@H](C(=O)NCCCCN2CCCC2)[C@H]2C=C[C@@H]1C21CC1 (racemic) [Example 356, (5R*)—N^5-[(4-Methyl-1,2,5-oxadiazol-3-yl)methyl]-(6R*)—N^6-(4-pyrrolidino-butyl)-(4S*,7R*)-[4,7-ethenylene-spiro[2.4]heptane]-5,6-dicarboxamide]
4 | 5.58 | 6.63 | COc1ccc(CNC(=O)[C@H]2[C@H](C(=O)NCCCCN3CCCC3)[C@H]3C=C[C@@H]2C32CC2)cc1Cl (racemic) [Example 374, (5R*)—N^5-(3-Chloro-4-methoxyphenyl-methyl)-(6R*)—N^6-(4-pyrrolidino-butyl)-(4S*,7R*)-[4,7-ethenylene-spiro[2.4]heptane]-5,6-dicarboxamide]

Further lines, the compound ahead of its results:

Row | Compound | pEC50 (human ALX receptor) | pEC50 (human FPRL2)
5 | Cc1ccc(CCNC(=O)[C@H]2[C@H](C(=O)NCCCCN3CCCC3)[C@H]3C=C[C@@H]2C32CC2)cc1C (racemic) [Example 380, (5R*)—N^5-(2-(3,4-Dimethylphenyl)ethyl)-(6R*)—N^6-(4-pyrrolidino-butyl)-(4S*,7R*)-[4,7-ethenylene-spiro[2.4]heptane]-5,6-dicarboxamide] | < 4.60 | 6.99
6 | CC(=O)c1cnc(CNC(=O)[C@H]2[C@H](C(=O)NCCCCN3CCCC3)[C@H]3C=C[C@@H]2C32CC2)s1 (racemic) [Example 351, (5R*)—N^5-[(5-Acetyl-thiazol-2-yl)methyl]-(6R*)—N^6-(4-pyrrolidino-butyl)-(4S*,7R*)-[4,7-ethenylene-spiro[2.4]heptane]-5,6-dicarboxamide] | 5.20 | 7.03
7 | CC(C)(C)OC(=O)NCCCCCNC(=O)C1C(C(=O)Nc2ncc(Br)s2)C2CCC1C21CC1 [Example 333, (5R)—N^5-(5-Bromo-thiazol-2-yl)-(6R)—N^6-(5-tert-butoxycarbonyl-amino-pentyl)-(4S,7R)-[4,7-ethylene-spiro[2.4]heptane]-5,6-dicarboxamide] | 6.28 | 5.91
8 | COc1c(F)cc(CNC(=O)[C@H]2[C@H](C(=O)NCCCCN3CCCC3)[C@H]3C=C[C@@H]2C32CC2)cc1F (racemic) [Example 229, (5R*)—N^5-(3,5-Difluoro-4-methoxy-phenyl-methyl)-(6R*)—N^6-(4-pyrrolidin-1-yl-butyl)-(4S*,7R*)-[4,7-ethenylene-spiro[2.4]heptane]-5,6-dicarboxamide] | 6.92 | 7.17
9 | O=C(CCCN1CCCC1=O)NC[C@H]1[C@H](C(=O)Nc2ccc(Br)cc2)[C@@H]2C=C[C@H]1C21CC1 (racemic) [Example 161, (5R*)—N^5-(4-Bromo-phenyl)-(6R*)-6-[(4-(2-oxo-pyrrolidin-1-yl)-butyrylamino)-methyl]-(4S*,7R*)-[4,7-ethenylene-spiro[2.4]heptane]-5-carboxamide] | 7.33 | 5.10
